Measured values: patent publication US8263562B2, “Peptides for preventing or treating liver damage” (priority 2006, dated 2012)

Experiments:
[1] = test system: D-aminogalactose-induced acute liver damage; assay: D-aminogalactose-induced acute liver damage of rats; format: in vivo, Wistar Rats; details: 13.5 mg/kg intraperitoneal, every day for 7 days
Excerpt: Wistar Rats (body weight of each was 180 g˜220 g; half of them were male and the others were female; and they were purchased from Shanghai Slac Laboratory Animal, Inc.) were divided randomly into 6 groups as follows with 10 rats in each group: (1) the diammonium glycyrrhizinate injection group, injected with diammonium glycyrrhizinate; (2) the high dose group, immunized with Peptide A and adjuvant; (3) the medium dose group, immunized with Peptide A and adjuvant; (4) the low dose group, immunized with Peptide A and adjuvant; (5) the blank control group; and (6) the model group.
Rats in the high dose group, the medium dose group and the low dose group were immunized as follows: At Day 0, the first immunization was performed by the following process: 100 μl of Peptide A dissolved in physiological saline was mixed thoroughly with the equivalent volume of Freund's complete adjuvant, and then 0.2 ml of the resultant water-in-oil emulsion was administered via subcutaneous injection to each rat, wherein the dosage of Peptide A contained in the emulsion was 174 μg/kg rat body weight for the high dose group, 87 μg/kg rat body weight for the medium dose group, and 43.5 μg/kg rat body weight for the low dose group respectively. 14 days later, the second immunization was performed in the same dosage and manner as the first immunization except that, Freund's complete adjuvant was replaced by Freund's incomplete adjuvant. […]
At the 48th hour after intraperitoneally injecting D-aminogalactose, each rat was sacrificed by cervical dislocation, and blood was collected. After sera were isolated, according to the specification of the manufacturer, the activities of glutamic-pyruvic transaminase (SGPT) and glutamic-oxalacetic transaminase (SGOT) in sera were detected respectively by using Glutamic-pyruvic Transaminase Detection Kit (purchased from Nanjing Jiancheng Bioengineering Institute) and Glutamic-oxalacetic Transaminase Detection Kit (purchased from Nanjing Jiancheng Bioengineering Institute).

[2] = test system: BCG vaccine and lipopolysaccharide-induced immunological liver damage; format: in vivo, Wistar Rats; details: 13.5 mg/kg intraperitoneal, every day for 7 days
[3] = test system: sera of patients with HBV; assay: Indirect ELISA, reactivity of the peptides to sera of patients with Hepatitis B; format: binding, human; details: sera of 10 patients with HBV
Description: Sera of patients with Hepatitis B (HBV): obtained from inpatients with Hepatitis B in the Liberation Army 302 Hospital, who was positive for the surface antigen of Hepatitis B virus as assayed.
(§1) The reactivity of the individual peptide of the invention to sera was detected by standard indirect ELISA technology using Model DG3022 Enzyme-Linked Immunoassay Analyzer (purchased from Perkin Elmer Corporation). 10 μg of Peptide A, Peptide B, Peptide C, and Peptide Conjugate A were added respectively into the basic coating buffer (0.1 mol/L NaHCO3, 35 μl; 0.1 mol/L Na2CO3, 15 μl; H2O, 50 μl), and then transferred into the wells of polypropylene/ethylene microtiter plate, and placed at 4° C. overnight. After adding 120 μl of FCS-PBS, each well was blocked at 37° C. for 2 hours. Sera (dilution of 1:100) were then added to the wells, and incubated at 37° C. for 1 hour. Goat anti-human IgGs (dilution of 1:1000) (purchased from Sino-American Biotechnology Company, Beijing) were then added to the wells, and incubated at 37° C. for 1 hour. 50 μl of Solution A and Solution B (purchased from Beijing Kewei Reagent Company) were added to every well, placed in the dark for 5 min, and then the absorbance at 450 nm was measured.

[4] = test system: Sera of Patients with HCV (anti-HCV antibody-positive sera); assay: Indirect ELISA, reactivity of the peptides to anti-HCV antibody-positive sera; format: binding, human; details: for reactivity to sera of patients with HCV compared to sera of patients with HBV and healthy donors: X^2-test; for Percentage of Positive Cases (%) / The Number of Positive Cases: anti-HCV antibody-positive sera of 30 patients, sera dilution 1:100, 10 μg peptide coated
Description: Anti-HCV antibody-positive sera: randomly obtained from inpatients infected with HCV in the Liberation Army 302 Hospital from 2000 to 2001.
as §1

IL-4 = assay: Level of IL-4 in sera of immunized mice by ELISA; format: in vivo, BALB/c Mice; details: first day after the fourth immunization
Description: (§2) BALB/c Mice, all of which are male, 6 week old, and purchased from the Laboratory Animal Center of Academy Of Military Medical Sciences, Beijing, were divided into 4 groups as follows with 5 mice in each group: (1) the control group; (2) the Peptide A group, immunized with Peptide A; (3) the Peptide B group, immunized with Peptide B; and (4) the Peptide C group, immunized with Peptide C.
(§3) 50 μl of the peptide (100 μg/μl) used in the corresponding group and 50 μl of Freund's complete adjuvant (GIBCOBRL Corp.) were mixed thoroughly with a microstirrer, and the mixture was injected into the claw pad of a mouse, thereby the first immunization was performed for each of the mice. 14 days later, booster immunization was performed in the same manner as the first immunization with 50 μl of the peptide (100 μg/μl) used in the corresponding group and 50 μl of Freund's complete adjuvant (GIBCOBRL Corp.). 14 days later, another booster immunization was performed in the same manner. 14 days later, boost immunization was performed by injecting 100 μg of the peptide dissolved in 200 μl PBS into the mouse intramuscularly. During the process of immunization, only the corresponding adjuvant and PBS were injected for the control group. At the first day after the fourth immunization, mice were sacrificed and sera were collected.
(§4) According to the specification of the manufacturer, the levels of cytokines (i.e., IL-4, IL-10, and γ-IFN) in sera of the above immunized mice were detected respectively by using IL-4 Quantikine ELASA Kit, IL-10 Quantikine ELASA Kit, and γ-IFN Quantikine ELASA Kit (all of which are purchased from R&D, Inc.).

sera of healthy donors = assay: Indirect ELISA, reactivity of the peptides to control sera of healthy donors; format: binding, human; details: sera of 10 healthy donors
Description: Control sera: obtained from healthy blood donors, who had normal blood indexes in each assay.
as §1

IL-10 = assay: Level of IL-10 in sera of immunized mice by ELISA; format: in vivo, BALB/c Mice; details: first day after the fourth immunization
Description: as §2, §3, §4

γ-IFN = assay: Level of γ-IFN in sera of immunized mice by ELISA; format: in vivo, BALB/c Mice; details: first day after the fourth immunization
Description: as §2, §3, §4

| Compound | protective effect on acute liver damage of rats (SGPT, SGOT) [1] | protective effect on liver damage of rats (SGPT, SGOT) [2] | protective effect on liver damage of rats (pathological condition score) [2] | reactivity in ELISA Assay to sera of patients with HBV [3] | reactivity to sera of patients with HCV compared to sera of patients with HBV and healthy donors [4] | Percentage of Positive Cases (%) [4] | The Number of Positive Cases [4] | IL-4(pg/ml serum) (IL-4) | reactivity in ELISA Assay to sera of healthy donors (sera of healthy donors) | IL-10(pg/ml serum) (IL-10) | γ-IFN(pg/ml serum) (γ-IFN) |
| --- | --- | --- | --- | --- | --- | --- | --- | --- | --- | --- | --- |
| CC1(C)[C@@H](O[C@H]2O[C@H](C(=O)O)[C@@H](O)[C@H](O)[C@H]2O[C@@H]2O[C@H](C(=O)O)[C@@H](O)[C@H](O)[C@H]2O)CC[C@]2(C)[C@H]3C(=O)C=C4[C@@H]5C[C@@](C)(C(=O)O)CC[C@]5(C)CC[C@@]4(C)[C@]3(C)CC[C@@H]12.N.N [diammonium glycyrrhizinate injection, diammonium glycyrrhizinate, reference compound] | significant protective effect | no significant protective effect | no significant protective effect |  |  |  |  |  |  |  |  |
| GQTYTSGA [Peptide B] |  |  |  | negative | significantly react | 50% | 15 | 30.64 ± 4.9 pg/ml serum | negative | 27.94 ± 6.4 pg/ml serum | 28.46 ± 5.9 pg/ml serum |
| GQTYTSGG [Peptide C] |  |  |  | negative | significantly react | 47% | 14 | 31.22 ± 5.0 pg/ml serum | negative | 26.926 ± 5.8 pg/ml serum | 24.81 ± 5.8 pg/ml serum |
